Reference: US20240009175A9, “TETRAZOLE DERIVATIVES” (Merck Patent GmbH, priority 2020, published 2024)

What was measured:
human rec ACSS2 = human rec ACSS2 (Homo sapiens (Human), UniProt Q9NR19); test: Biochemical activity ACSS2 assay (AMP-Glo); settings: human recombinant ACSS2, AMP-Glo, 180 min at 37° C.
Procedure, shortened: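 1 nM C-term myc-tagged recombinant human ACSS2 with 100 μM ATP, 100 μM Coenzyme A and 500 μM acetate (final concentrations), pH 7.5, 180 min at 37° C, compound from 30 μM over 10 concentrations. Released AMP quantified by AMP-Glo luminescence; zero set with 5 μM reference ACSS2 inhibitor, IC50 derived.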

ACSS2 = ACSS2 (Homo sapiens (Human), UniProt Q9NR19); test: Cellular assay of 14C acetate incorporation into fatty acids (IC50 ACSS2 cellular lipids); type: cell-based; settings: HCT-15 cells
ACSS2, sequence (Q9NR19 whole entry): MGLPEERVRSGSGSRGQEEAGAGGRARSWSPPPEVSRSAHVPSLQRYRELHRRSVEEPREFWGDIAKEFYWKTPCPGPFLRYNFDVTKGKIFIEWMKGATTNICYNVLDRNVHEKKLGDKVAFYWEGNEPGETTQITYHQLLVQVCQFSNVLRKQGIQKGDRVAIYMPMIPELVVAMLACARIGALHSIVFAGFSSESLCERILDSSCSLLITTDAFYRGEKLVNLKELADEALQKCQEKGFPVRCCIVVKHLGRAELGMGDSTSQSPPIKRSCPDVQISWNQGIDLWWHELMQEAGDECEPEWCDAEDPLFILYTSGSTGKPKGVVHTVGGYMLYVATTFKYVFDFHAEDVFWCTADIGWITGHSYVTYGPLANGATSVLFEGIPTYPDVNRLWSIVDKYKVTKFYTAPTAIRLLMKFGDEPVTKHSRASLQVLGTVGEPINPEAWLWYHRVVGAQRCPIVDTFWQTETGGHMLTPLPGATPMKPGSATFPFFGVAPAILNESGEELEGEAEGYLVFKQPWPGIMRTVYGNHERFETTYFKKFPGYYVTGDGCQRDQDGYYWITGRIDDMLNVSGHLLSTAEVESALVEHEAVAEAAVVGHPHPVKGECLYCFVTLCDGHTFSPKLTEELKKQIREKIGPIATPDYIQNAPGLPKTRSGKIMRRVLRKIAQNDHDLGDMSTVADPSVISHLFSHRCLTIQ
Description: Cellular Assay of ^14C Acetate Incorporation into Fatty Acids (IC50 ACSS2 Cellular Lipids)
This protocol describes a cellular assay capable to quantify endogenous fatty acid synthesis activity in the human HCT-15 cancer cell line following the incorporation of extracellularly administered radiolabeled ^14C acetate with a scintillation proximity based read out on extracted fatty acids.
HCT-15 cells were grown in RPMI 1640 (Gibco) supplemented with 2 mM glutamine, 1 mM sodium pyruvate 10 mM HEPES and 10% FCS (heat-inactivated) passaged every 2-3 days to remain a subconfluent, vital culture. A working cell bank was prepared with each aliquot containing 1×10^7 viable cells. After thawing, these cells are dilute immediately 1:20 in pre-warmed (37° C.) culture medium. Cells are collected by centrifugation at 200×g for 5 min, and the supernatant is replaced by 30 mL of fresh culture medium per aliquot to obtain a cell suspension containing 350000 cells/ml. From this cell suspension 100 μL are dispersed into each well of a collagen coated 96 well plate, (black, clear bottom, PS, F-bottom, Greiner) and culture for 24 h (37° C., 5% CO2). After incubation the culture medium is removed and the wells are washed once with 100 μL PBS++(supplemented with Mg^2+/Ca^2+, Gibco) and 50 μL assay medium (RPMI 1640+10 mM HEPES) are added to each well. Compounds serial dilutions are prepared from 10 mM stock solutions in DMSO using a fixed dilution factor (usually 1:3). After preparation of the dilution series in DMSO, the individual dilutions are further diluted in the assay medium. This working dilution is prepared such, that the concentration is 7× of the final concentration in the assay. The maximal DMSO concentration in the final assay is 0.1%.
To each well 10 μL compound working dilution or DMSO blank are added and the cells are cultured for 2 h (37° C., 5% CO2). Then 10 μL AlamarBlue reagent (Invitrogen) containing 14 μCi/mL 14C-acetate (Perkin Elmer) are added to each well (70 μl total volume) and cells are again cultured for 2 h. Cell viability is verified by measuring the AlamarBlue fluorescence (Tecan Safire, ex: 544 nm/em: 590 nm). After incubation the culture medium is removed and the wells are carefully washed once with cold 100 μL PBS++. For cell lysis and fatty acid recovery 50 μl 0.1 M NaOH and 0.1% Triton-X100 are added per well. The plate is sealed with PlateLoc (clear peelable heat seal, Agilent) and incubate at 70° C. for 16-24 h. After cooling to room temperature, the plates are centrifuged for 1 min at 1000 rpm and the plate seals are removed. For acidification 150 μL 0.1 M HCl are added to each well, mixed and 150 μL of the mixture are transferred into a 96 well FlashPlate (Perkin Elmer). The plates are sealed with TopSeal-A (Perkin Elmer). To allow for the fatty acid binding to the well surfaces the plates are incubate for 4 h at 70° C. After cooling to room temperature, the plates are centrifuged for 1 min at 1000 rpm and stored for 0.5-2h at room temperature in the dark. Radioactivity from ^14C incorporation into fatty acids in the wells is measured as CPM count in a MicroBeta scintillation counter (Perkin Elmer).

CHO-K1 cells = test: Micronucleus assay (MNT) in vitro; type: cell-based; parameters: key: A: negative, putative negative (micronuclei detected beyond threshold of 60% cyctotoxicity); B: positive; settings: 24 hrs treatment, 0.2 μM to 100 μM
Description: The in vitro MNT assay is performed in CHO-K1 cells due to their stable and well-characterized karyotype, high sensitivity and suitability for a high content imaging approach. They have a basal spontaneous micronucleus frequency of 3-4%.
24 hrs after plating CHO-K1 cells are treated with test compounds for 24 hrs (in duplicates; fixed concentration ranges from 0.2 μM to 100 μM in 2-fold dilution steps). After a medium change cells are incubated for 24 hrs with Cytochalasin B to block cytokinesis and are then fixed and nuclei/micronuclei visualized with a DNA stain. Images are acquired with the Molecular Devices high content imagers IXU or IXM and are analyzed with the dedicated MetaXpress software micronucleus module. Criteria for scoring of micronuclei (MN) are the following: • diameter of the MN should be less than ⅓ of the main nucleus • MN should be separated from or marginally overlap with main nucleus (=no blebs) • MN should have similar staining as the main nucleus
At least 1000 binucleated cells are evaluated per treatment replicate. Mitomycin C is used as reference stimulator of micronucleus formation. Cytotoxicity is evaluated in parallel and defined by comparing total nuclei count in compound-treated samples to neutral control samples treated with vehicle only (1% DMSO) (100% cytotoxicity means all cells are dead or lost).
A test compound is regarded as POSITIVE if generation of micronuclei and exhibition of less than 60% cytotoxicity at the same concentration can be observed.
Compounds are scored only in the soluble concentration range.
Experimental data of the compounds shown in Table 1 in the MNT assay are shown in Table 2 below and classified in the following groups: […]

human rec ACSS2, sequence (Q9NR19 whole entry): as above

CCc1c(C(O)(c2ccccc2)c2ccccc2)nc2ccc(-c3nnn[nH]3)cn12 [Compound 4, [3-Ethyl-6-(1 H-tetrazol-5-yl)-imidazo[1,2-a]pyridin-2-yl]-diphenyl-methanol]
IC50 (human rec ACSS2): 10 to 100 nM
IC50 (ACSS2): 10 to 100 nM
MNT (CHO-K1 cells): A

CCc1c(C(O)(c2ccccc2)c2ccccc2)nc2cc(OC)c(-c3nnn[nH]3)cn12 [Compound 2, [3-Ethyl-7-methoxy-6-(1H-tetrazol-5-yl)-imidazo[1,2-a]pyridin-2-yl]-diphenyl-methanol]
IC50 (human rec ACSS2): 1 to 10 nM
IC50 (ACSS2): 1 to 10 nM
MNT (CHO-K1 cells): A

COc1nc2nc(C(O)(c3ccccc3)c3ccccc3)n(CCO)c2cc1-c1nnn[nH]1 [Compound 34, 2-[2-(hydroxy-diphenylmethyl)-5-methoxy-6-(1H-1,2,3,4-tetrazol-5-yl)-1H-imidazo[4,5-b]pyridin-1-yl]ethan-1-ol]
IC50 (human rec ACSS2): 1 to 10 nM
IC50 (ACSS2): 10 to 100 nM
MNT (CHO-K1 cells): A

CCn1c(C(O)(c2cccs2)c2cccs2)nc2nc(OC)c(-c3nnn[nH]3)cc21 [Compound 38, [1-ethyl-5-methoxy-6-(1H-1,2,3,4-tetrazol-5-yl)-1H-imidazo[4,5-b]pyridin-2-yl]bis(thiophen-2-yl)methanol]
IC50 (human rec ACSS2): 1 to 10 nM
IC50 (ACSS2): 10 to 100 nM
MNT (CHO-K1 cells): A

CCc1c(C(O)(c2ccccc2F)c2ccccc2F)nc2cc(OC)c(-c3nnn[nH]3)cn12 [Compound 6, [3-Ethyl-7-methoxy-6-(1H-tetrazol-5-yl)-imidazo[1,2-a]pyridin-2-yl]-bis-(2-fluoro-phenyl)-methanol]
IC50 (human rec ACSS2): 1 to 10 nM
IC50 (ACSS2): 1 to 10 nM
MNT (CHO-K1 cells): A

CCc1c(C(O)(c2ccccc2)c2ccccc2)nn2cc(Cl)c(-c3nnn[nH]3)cc12 [Compound 21, [6-Chloro-3-ethyl-5-(1H-tetrazol-5-yl)-pyrazolo[1,5-a]pyridin-2-yl]-diphenyl-methanol]
IC50 (human rec ACSS2): 1 to 10 nM
IC50 (ACSS2): 1 to 10 nM
MNT (CHO-K1 cells): A

CCn1c(C(O)(c2ccccc2F)c2ccccc2F)nc2nc(C)c(-c3nnn[nH]3)cc21 [Compound 59, [1-ethyl-5-methyl-6-(1H-1,2,3,4-tetrazol-5-yl)-1H-imidazo[4,5-b]pyridin-2-yl]bis(2-fluorophenyl)methanol]
IC50 (human rec ACSS2): 1 to 10 nM
IC50 (ACSS2): 10 to 100 nM
MNT (CHO-K1 cells): A

CCn1c(C(O)(c2ccccc2)c2ccccc2)nc2ccc(C(=O)NC[C@@H](C)O)cc21 [Reference Compound, 3-Ethyl-2-[hydroxy(diphenyl)methyl]-N-[(2R)-2-hydroxypropyl]benzimidazole-5-carboxamide, reference compound]
IC50 (human rec ACSS2): 100 to 10000 nM
IC50 (ACSS2): 1 to 10 nM
MNT (CHO-K1 cells): B

CCc1c(C(O)(c2ccccc2)c2ccccc2)nn2cc(OC)c(-c3nnn[nH]3)cc12 [Compound 22, [3-Ethyl-6-methoxy-5-(1H-tetrazol-5-yl)-pyrazolo[1,5-a]pyridin-2-yl]-diphenyl-methanol]
IC50 (human rec ACSS2): 1 to 10 nM
IC50 (ACSS2): 1 to 10 nM
MNT (CHO-K1 cells): A

CCn1c(C(O)(c2ccccc2)c2ccccn2)nc2nc(OC)c(-c3nnn[nH]3)cc21 (single isomer, unassigned) [Compound 40, [1-ethyl-5-methoxy-6-(1H-1,2,3,4-tetrazol-5-yl)-1H-imidazo[4,5-b]pyridin-2-yl](phenyl)(pyridin-2-yl)methanol]
IC50 (human rec ACSS2): 1 to 10 nM
IC50 (ACSS2): 1 to 10 nM
MNT (CHO-K1 cells): A

CCn1c(C(O)(c2ccccc2)c2ccccc2)nc2nc(OC)c(-c3nnn[nH]3)cc21 [Compound 58, [1-ethyl-5-methoxy-6-(1H-1,2,3,4-tetrazol-5-yl)-1H-imidazo[4,5-b]pyridin-2-yl]diphenylmethanol]
IC50 (human rec ACSS2): 0.01 to 1 nM
IC50 (ACSS2): 0.01 to 1 nM
MNT (CHO-K1 cells): A

CCn1c(C(O)(c2ccccc2)c2ccccc2)nc2ncc(-c3nnn[nH]3)cc21 [Compound 60, [1-ethyl-6-(1H-1,2,3,4-tetrazol-5-yl)-1H-imidazo[4,5-b]pyridin-2-yl]diphenylmethanol]
IC50 (human rec ACSS2): 10 to 100 nM
IC50 (ACSS2): 100 to 10000 nM
MNT (CHO-K1 cells): A

CCn1c(C(O)(c2ccccc2)c2ccccc2)nc2nc(C)c(-c3nnn[nH]3)cc21 [Compound 62, [1-ethyl-5-methyl-6-(1H-1,2,3,4-tetrazol-5-yl)-1H-imidazo[4,5-b]pyridin-2-yl]diphenylmethanol]
IC50 (human rec ACSS2): 1 to 10 nM
IC50 (ACSS2): 100 to 10000 nM
MNT (CHO-K1 cells): A

CCn1c(C(O)(c2ccccc2)c2ccccc2)nc2nc(Cl)c(-c3nnn[nH]3)cc21 [Compound 51, [5-chloro-1-ethyl-6-(1H-1,2,3,4-tetrazol-5-yl)-1H-imidazo[4,5-b]pyridin-2-yl]diphenylmethanol]
IC50 (human rec ACSS2): 1 to 10 nM
IC50 (ACSS2): 10 to 100 nM
MNT (CHO-K1 cells): A

CCc1c(C(O)(c2ccccc2)c2ccccn2)nc2cc(OC)c(-c3nnn[nH]3)cn12 (single isomer, unassigned) [Compound 11, [3-Ethyl-7-methoxy-6-(1H-tetrazol-5-yl)-imidazo[1,2-a]pyridin-2-yl]-phenyl-pyridin-2-yl-methanol]
IC50 (human rec ACSS2): 1 to 10 nM
IC50 (ACSS2): 1 to 10 nM
MNT (CHO-K1 cells): A

CCc1c(C(O)(c2ccccc2F)c2ccccc2F)nc2cc(Cl)c(-c3nnn[nH]3)cn12 [Compound 5, [7-Chloro-3-ethyl-6-(1H-tetrazol-5-yl)-imidazo[1,2-a]pyridin-2-yl]-bis-(2-fluoro-phenyl)-methanol]
IC50 (human rec ACSS2): 1 to 10 nM
IC50 (ACSS2): 10 to 100 nM
MNT (CHO-K1 cells): A

CCc1c(C(O)(c2ccccc2)c2ccccc2)nc2cc(Cl)c(-c3nnn[nH]3)cn12 [Compound 9, [7-Chloro-3-ethyl-6-(1H-tetrazol-5-yl)-imidazo[1,2-a]pyridin-2-yl]-diphenyl-methanol]
IC50 (human rec ACSS2): 1 to 10 nM
IC50 (ACSS2): 1 to 10 nM
MNT (CHO-K1 cells): A

CCn1c(C(O)(c2ccccc2F)c2ccccc2F)nc2nc(OC)c(-c3nnn[nH]3)cc21 [Compound 57, [1-ethyl-5-methoxy-6-(1H-1,2,3,4-tetrazol-5-yl)-1H-imidazo[4,5-b]pyridin-2-yl]bis(2-fluorophenyl)methanol]
IC50 (human rec ACSS2): 0.01 to 1 nM
IC50 (ACSS2): 0.01 to 1 nM
MNT (CHO-K1 cells): A

CCc1c(C(O)(c2ccccc2F)c2ccccc2F)nn2cc(OC)c(-c3nnn[nH]3)cc12 [Compound 19, [3-Ethyl-6-methoxy-5-(1H-tetrazol-5-yl)-pyrazolo[1,5-a]pyridin-2-yl]-bis-(2-fluoro-phenyl)-methanol]
IC50 (human rec ACSS2): 1 to 10 nM
IC50 (ACSS2): 1 to 10 nM
MNT (CHO-K1 cells): A

CCn1c(C(O)(c2ccccc2)c2ncccn2)nc2nc(OC)c(-c3nnn[nH]3)cc21 (racemic) [Compound 37, [1-ethyl-5-methoxy-6-(1H-1,2,3,4-tetrazol-5-yl)-1H-imidazo[4,5-b]pyridin-2-yl](phenyl)(pyrimidin-2-yl)methanol]
IC50 (human rec ACSS2): 1 to 10 nM
IC50 (ACSS2): 1 to 10 nM
MNT (CHO-K1 cells): A
